Activity calls are given as the source filed them. Unless noted, no cut-off for these calls is given here.
Experiments:
Type in all cases: functional
[1] = Antioxidant activity assessed as metal chelating activity by measuring inhibition of ferrozine-Fe2+ complex formation at 25 to 100 ug/ml
[2] = test system: Radical scavenging activity; assay: Antioxidant activity assessed as DPPH radical scavenging activity at 75 ug/ml
Aspergillus flavus [3] = assay: Antimicrobial activity against Aspergillus flavus MTCC 1973 at 500 ug/ml after 72 hrs by cup plate method; settings: MTCC 1973, 72 h, read-out: IZ
Aspergillus flavus [4] = assay: Antimicrobial activity against Aspergillus flavus MTCC 1973 at 750 ug/ml after 72 hrs by cup plate method; settings: MTCC 1973, 72 h, read-out: IZ
Aspergillus flavus [5] = assay: Antimicrobial activity against Aspergillus flavus MTCC 1973 at 1000 ug/ml after 72 hrs by cup plate method; settings: MTCC 1973, 72 h, read-out: IZ
Aspergillus terreus [6] = assay: Antimicrobial activity against Aspergillus terreus MTCC 1782 at 500 ug/ml after 72 hrs by cup plate method; settings: MTCC 1782, 72 h, read-out: IZ
Aspergillus terreus [7] = assay: Antimicrobial activity against Aspergillus terreus MTCC 1782 at 750 ug/ml after 72 hrs by cup plate method; settings: MTCC 1782, 72 h, read-out: IZ
Aspergillus terreus [8] = assay: Antimicrobial activity against Aspergillus terreus MTCC 1782 at 1000 ug/ml after 72 hrs by cup plate method; settings: MTCC 1782, 72 h, read-out: IZ
Aspergillus oryzae [9] = assay: Antimicrobial activity against Aspergillus oryzae MTCC 3567 at 500 ug/ml after 72 hrs by cup plate method; settings: MTCC 3567, 72 h, read-out: IZ
Aspergillus oryzae [10] = assay: Antimicrobial activity against Aspergillus oryzae MTCC 3567 at 750 ug/ml after 72 hrs by cup plate method; settings: MTCC 3567, 72 h, read-out: IZ
Aspergillus oryzae [11] = assay: Antimicrobial activity against Aspergillus oryzae MTCC 3567 at 1000 ug/ml after 72 hrs by cup plate method; settings: MTCC 3567, 72 h, read-out: IZ
Aspergillus niger [12] = assay: Antimicrobial activity against Aspergillus niger MTCC 281 at 500 ug/ml after 72 hrs by cup plate method; settings: MTCC 281, 72 h, read-out: IZ
Aspergillus niger [13] = assay: Antimicrobial activity against Aspergillus niger MTCC 281 at 750 ug/ml after 72 hrs by cup plate method; settings: MTCC 281, 72 h, read-out: IZ
Aspergillus niger [14] = assay: Antimicrobial activity against Aspergillus niger MTCC 281 at 1000 ug/ml after 72 hrs by cup plate method; settings: MTCC 281, 72 h, read-out: IZ
Pseudomonas aeruginosa [15] = assay: Antimicrobial activity against Pseudomonas aeruginosa MTCC 1688 at 500 ug/ml after 24 hrs by cup plate method; settings: MTCC 1688, 24 h, read-out: IZ
Pseudomonas aeruginosa [16] = assay: Antimicrobial activity against Pseudomonas aeruginosa MTCC 1688 at 750 ug/ml after 24 hrs by cup plate method; settings: MTCC 1688, 24 h, read-out: IZ
Pseudomonas aeruginosa [17] = assay: Antimicrobial activity against Pseudomonas aeruginosa MTCC 1688 at 1000 ug/ml after 24 hrs by cup plate method; settings: MTCC 1688, 24 h, read-out: IZ
Klebsiella pneumoniae [18] = assay: Antimicrobial activity against Klebsiella pneumoniae NCTC 13368 at 500 ug/ml after 24 hrs by cup plate method; settings: NCTC 13368, 24 h, read-out: IZ
Klebsiella pneumoniae [19] = assay: Antimicrobial activity against Klebsiella pneumoniae NCTC 13368 at 750 ug/ml after 24 hrs by cup plate method; settings: NCTC 13368, 24 h, read-out: IZ
Klebsiella pneumoniae [20] = assay: Antimicrobial activity against Klebsiella pneumoniae NCTC 13368 at 1000 ug/ml after 24 hrs by cup plate method; settings: NCTC 13368, 24 h, read-out: IZ
Staphylococcus aureus [21] = assay: Antimicrobial activity against Staphylococcus aureus ATCC 29513 at 500 ug/ml after 24 hrs by cup plate method; settings: ATCC 29513, 24 h, read-out: IZ
Staphylococcus aureus [22] = assay: Antimicrobial activity against Staphylococcus aureus ATCC 29513 at 750 ug/ml after 24 hrs by cup plate method; settings: ATCC 29513, 24 h, read-out: IZ
Staphylococcus aureus [23] = assay: Antimicrobial activity against Staphylococcus aureus ATCC 29513 at 1000 ug/ml after 24 hrs by cup plate method; settings: ATCC 29513, 24 h, read-out: IZ
Escherichia coli [24] = assay: Antimicrobial activity against Escherichia coli MTCC 723 at 500 ug/ml after 24 hrs by cup plate method; settings: MTCC 723, 24 h, read-out: IZ
Escherichia coli [25] = assay: Antimicrobial activity against Escherichia coli MTCC 723 at 750 ug/ml after 24 hrs by cup plate method; settings: MTCC 723, 24 h, read-out: IZ
Escherichia coli [26] = assay: Antimicrobial activity against Escherichia coli MTCC 723 at 1000 ug/ml after 24 hrs by cup plate method; settings: MTCC 723, 24 h, read-out: IZ
[27] = Antioxidant activity assessed as ferric ion reducing activity at 75 ug/ml by FRAP assay
[28] = test system: Radical scavenging activity; assay: Antioxidant activity assessed as DPPH radical scavenging activity at 100 ug/ml
[29] = Antioxidant activity assessed as ferric ion reducing activity at 25 to 100 ug/ml by FRAP assay
[30] = Antioxidant activity assessed as ferric ion reducing activity at 25 to 75 ug/ml by FRAP assay

| SMILES | Activity [1] | zone of inhibition at 500 µg/mL (Aspergillus flavus [3]) [mm] | zone of inhibition at 750 µg/mL (Aspergillus flavus [4]) [mm] | zone of inhibition at 1000 µg/mL (Aspergillus flavus [5]) [mm] | zone of inhibition at 500 µg/mL (Aspergillus terreus [6]) [mm] | zone of inhibition at 750 µg/mL (Aspergillus terreus [7]) [mm] | zone of inhibition at 1000 µg/mL (Aspergillus terreus [8]) [mm] | zone of inhibition at 500 µg/mL (Aspergillus oryzae [9]) [mm] | zone of inhibition at 750 µg/mL (Aspergillus oryzae [10]) [mm] | zone of inhibition at 1000 µg/mL (Aspergillus oryzae [11]) [mm] | zone of inhibition at 500 µg/mL (Aspergillus niger [12]) [mm] | zone of inhibition at 750 µg/mL (Aspergillus niger [13]) [mm] | zone of inhibition at 1000 µg/mL (Aspergillus niger [14]) [mm] | zone of inhibition at 500 µg/mL (Pseudomonas aeruginosa [15]) [mm] | zone of inhibition at 750 µg/mL (Pseudomonas aeruginosa [16]) [mm] | zone of inhibition at 1000 µg/mL (Pseudomonas aeruginosa [17]) [mm] | zone of inhibition at 500 µg/mL (Klebsiella pneumoniae [18]) [mm] | zone of inhibition at 750 µg/mL (Klebsiella pneumoniae [19]) [mm] | zone of inhibition at 1000 µg/mL (Klebsiella pneumoniae [20]) [mm] | zone of inhibition at 500 µg/mL (Staphylococcus aureus [21]) [mm] | further results |
| --- | --- | --- | --- | --- | --- | --- | --- | --- | --- | --- | --- | --- | --- | --- | --- | --- | --- | --- | --- | --- | --- |
| Cc1ccc(C2=CC(c3c(-c4ccccc4)[nH]c4ccc(Cl)cc34)c3c(nc4oc(=O)c(C#N)c(N)c4c3N)O2)cc1 (configuration not stated) | Active | 6 | 5 | 3 | 3 | 3 | 3 | 10 | 10 | 10 | 0 | 0 | 3 | 2 | 2 | 2 | 8 | 8 | 8 | 5 | Activity [2]: Active; zone of inhibition at 750 µg/mL (Staphylococcus aureus [22]): 3 mm; zone of inhibition at 1000 µg/mL (Staphylococcus aureus [23]): 3 mm; zone of inhibition at 500 µg/mL (Escherichia coli [24]): 12 mm; zone of inhibition at 750 µg/mL (Escherichia coli [25]): 10 mm; zone of inhibition at 1000 µg/mL (Escherichia coli [26]): 9 mm |
| Nc1nc(=O)[nH]c2c1C(c1c(-c3ccccc3)[nH]c3ccc(Cl)cc13)C=C(c1ccc(Cl)cc1)O2 (configuration not stated) | Active | 6 | 6 | 4 | 9 | 9 | 9 | 9 | 9 | 9 | 12 | 12 | 13 | 9 | 9 | 9 | 9 | 9 | 9 | 13 | Activity [27]: Active; Activity [28]: 75.5%; zone of inhibition at 750 µg/mL (Staphylococcus aureus [22]): 13 mm; zone of inhibition at 1000 µg/mL (Staphylococcus aureus [23]): 14 mm; zone of inhibition at 500 µg/mL (Escherichia coli [24]): 9 mm; zone of inhibition at 750 µg/mL (Escherichia coli [25]): 10 mm; zone of inhibition at 1000 µg/mL (Escherichia coli [26]): 10 mm |
| Cc1ccc(C2=CC(c3c(-c4ccccc4)[nH]c4ccc(Cl)cc34)c3c(nc[nH]c3=O)O2)cc1 (configuration not stated) | Active | 6 | 6 | 6 | 8 | 8 | 8 | 12 | 13 | 13 | 8 | 8 | 8 | 8 | 8 | 8 | 9 | 9 | 9 | 5 | Activity [29]: Active; Activity [30]: Active; zone of inhibition at 750 µg/mL (Staphylococcus aureus [22]): 3 mm; zone of inhibition at 1000 µg/mL (Staphylococcus aureus [23]): 3 mm; zone of inhibition at 500 µg/mL (Escherichia coli [24]): 3 mm; zone of inhibition at 750 µg/mL (Escherichia coli [25]): 3 mm; zone of inhibition at 1000 µg/mL (Escherichia coli [26]): 3 mm |
| Nc1nc(=S)[nH]c2c1C(c1c(-c3ccccc3)[nH]c3ccc(Cl)cc13)C=C(c1ccc(Cl)cc1)O2 (configuration not stated) | Active | 5 | 4 | 11 | 2 | 3 | 3 | 9 | 10 | 0 | 11 | 11 | 14 | 10 | 10 | 11 | 5 | 5 | 8 | 13 | Activity [2]: Active; zone of inhibition at 750 µg/mL (Staphylococcus aureus [22]): 13 mm; zone of inhibition at 1000 µg/mL (Staphylococcus aureus [23]): 13 mm; zone of inhibition at 500 µg/mL (Escherichia coli [24]): 10 mm; zone of inhibition at 750 µg/mL (Escherichia coli [25]): 10 mm; zone of inhibition at 1000 µg/mL (Escherichia coli [26]): 11 mm |
| Cc1ccc2[nH]c(-c3ccccc3)c(C3C=C(c4ccc(Cl)cc4)Oc4[nH]c(=S)nc(N)c43)c2c1 (configuration not stated) | Active | 3 | 3 | 4 | 3 | 3 | 10 | 9 | 8 | 9 | 5 | 5 | 3 | 9 | 9 | 9 | 5 | 3 | 5 | 9 | Activity [30]: Active; zone of inhibition at 750 µg/mL (Staphylococcus aureus [22]): 9 mm; zone of inhibition at 1000 µg/mL (Staphylococcus aureus [23]): 11 mm; zone of inhibition at 500 µg/mL (Escherichia coli [24]): 4 mm; zone of inhibition at 750 µg/mL (Escherichia coli [25]): 3 mm; zone of inhibition at 1000 µg/mL (Escherichia coli [26]): 3 mm |
